Laboratory results reported in PubChem BioAssay (NCI).
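All cell lines were grown in 96-well plates and treated with compound for 48 hours. TGI is the concentration that stops growth completely.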

Key:
Assay in all cases: NCI-60 cell line screen, 48 h
CAKI-1 renal = test system: CAKI-1 renal
MOLT-4 leukemia = test system: MOLT-4 leukemia
HCC-2998 colon = test system: HCC-2998 colon
OVCAR-8 ovarian = test system: OVCAR-8 ovarian
UACC-257 melanoma = test system: UACC-257 melanoma
DMS 114 small cell lung = test system: DMS 114 small cell lung
UO-31 renal = test system: UO-31 renal
A498 renal = test system: A498 renal
HOP-18 NSCLC = test system: HOP-18 NSCLC
KM20L2 colon = test system: KM20L2 colon
COLO 205 colon = test system: COLO 205 colon
RXF-631 renal = test system: RXF-631 renal
A549 NSCLC = test system: A549 NSCLC
IGROV1 ovarian = test system: IGROV1 ovarian
NCI-H460 lung = test system: NCI-H460 lung
ACHN renal = test system: ACHN renal
SK-OV-3 ovarian = test system: SK-OV-3 ovarian
SNB-78 CNS = test system: SNB-78 CNS
NCI-H522 lung = test system: NCI-H522 lung
OVCAR-5 ovarian = test system: OVCAR-5 ovarian
SK-MEL-2 melanoma = test system: SK-MEL-2 melanoma
RPMI-8226 leukemia = test system: RPMI-8226 leukemia
SNB-19 CNS = test system: SNB-19 CNS
HCT-15 colon = test system: HCT-15 colon
RXF 393 renal = test system: RXF 393 renal
SW-620 colon = test system: SW-620 colon
OVCAR-4 ovarian = test system: OVCAR-4 ovarian
DLD-1 colon = test system: DLD-1 colon
NCI-H226 lung = test system: NCI-H226 lung
KM12 colon = test system: KM12 colon
K-562 leukemia = test system: K-562 leukemia
SK-MEL-5 melanoma = test system: SK-MEL-5 melanoma
HL-60(TB) leukemia = test system: HL-60(TB) leukemia
SN12C renal = test system: SN12C renal
M14 melanoma = test system: M14 melanoma
MALME-3M melanoma = test system: MALME-3M melanoma
786-0 renal = test system: 786-0 renal
SNB-75 CNS = test system: SNB-75 CNS
HOP-62 NSCLC = test system: HOP-62 NSCLC
SF-539 CNS = test system: SF-539 CNS
U251 CNS = test system: U251 CNS
HOP-92 NSCLC = test system: HOP-92 NSCLC
CCRF-CEM leukemia = test system: CCRF-CEM leukemia
LOX IMVI melanoma = test system: LOX IMVI melanoma
TK-10 renal = test system: TK-10 renal
DMS 273 small cell lung = test system: DMS 273 small cell lung
HCT-116 colon = test system: HCT-116 colon
LXFL 529 NSCLC = test system: LXFL 529 NSCLC
SF-295 CNS = test system: SF-295 CNS
HT29 colon = test system: HT29 colon
SF-268 CNS = test system: SF-268 CNS
UACC-62 melanoma = test system: UACC-62 melanoma
SK-MEL-28 melanoma = test system: SK-MEL-28 melanoma
EKVX NSCLC = test system: EKVX NSCLC
SR leukemia = test system: SR leukemia
M19-MEL melanoma = test system: M19-MEL melanoma
OVCAR-3 ovarian = test system: OVCAR-3 ovarian
NCI-H23 lung = test system: NCI-H23 lung

Measured: TGI

COc1cc(O)c(C(=O)C2Cc3ccccc32)c(OC)c1 (stereo unspecified)
45.8 µM: MOLT-4 leukemia
86 µM: NCI-H226 lung
47.4 µM: RPMI-8226 leukemia
39.7 µM: HL-60(TB) leukemia
69.4 µM: RXF 393 renal
72.4 µM: CAKI-1 renal
95 µM: SK-MEL-2 melanoma
97.2 µM: DMS 114 small cell lung
not listed: SK-MEL-28 melanoma | EKVX NSCLC | SR leukemia | M19-MEL melanoma | OVCAR-3 ovarian | NCI-H23 lung
> 100 µM: all other assays above

CC(=O)OC1COC(N2C(=O)C(=O)c3ccccc32)C(OC(C)=O)C1OC(C)=O (stereo unspecified)
not listed: HOP-18 NSCLC | OVCAR-5 ovarian | HL-60(TB) leukemia | HCT-116 colon
> 100 µM: all other assays above
